Consider 4 compounds from patent US20220146526A1, “METHOD FOR EVALUATING SAMPLE, ANALYSIS METHOD, METHOD FOR DETECTING DEGRADED SAMPLE, MARKER FOR DETECTING DEGRADED BLOOD PLASMA SAMPLE, AND MARKER FOR DETECTING DEGRADED SERUM SAMPLE” (SHIMADZU CORPORATION, priority 2019, published 2022).

Holding throughout (format): physicochemical, human
Data set [1] is described as follows: LC/MS of blood plasma sample: number of times of freezing and thawing (Table F). The settings on record: for Rate of increase or decrease: detection intensity relative to 1 at 2 times; for Increase or decrease: detection intensity. The gist of the method:
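Values are detection intensities normalised to 1 for plasma thawed twice, compared against 4, 6 and 10 freeze-thaw cycles. Measured by electrospray LC/MS in MRM mode, formic acid water/acetonitrile mobile phase, column at 40° C. Plasma came from EDTA blood, cooled to 4° C and spun at 3000 rpm for 15 min.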

Data set [2] can be described thus: GC/MS of serum sample: number of times of freezing and thawing (Table I). Set-up: key to Rate of increase or decrease / Rate of increase or decrease (first value, increase): detection intensity relative to 2 freeze-thaw cycles = 1. A digest of the protocol:
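Detection intensities are ratios to the value after two freeze–thaw cycles, which is set as 1, compared against 4, 6 and 10 cycles. Analysis used methoxymation and trimethylsilylation derivatization, then GC/MS with EI ionization and multiple reaction monitoring on a BPX5 column. Serum came from blood held at room temperature and spun at 3500 rpm for 5 min.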

Data set [3] in a line: GC/MS of blood plasma sample: number of times of freezing and thawing (Table C). The settings on record: for Rate of increase or decrease: detection intensity relative to 1 at 2 times; for Increase or decrease: detection intensity. A digest of the protocol: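 Values express detection intensity as a ratio to the 2-cycle freeze-thaw sample (=1), compared with 4, 6 and 10 cycles. Healthy-donor EDTA plasma, cooled at ≤1 min or ≥5 min, spun at 4 °C, 3000 rpm, 15 min. Derivatised by methoxymation/trimethylsilylation; GC-MS/MS in MRM mode with electron ionization.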

Data set [4] is described as follows: GC/MS of blood plasma sample: time from blood collection to centrifugation (Table A). The note with it: for Rate of increase or decrease: detection intensity relative to 1 at 15 minutes; for Rate of increase or decrease / Increase or decrease: blood collection to centrifugation; for Increase or decrease: detection intensity, after 4 hours vs 15 minutes. The gist of the method:
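Read-out is MRM detection intensity by electron-ionization GC/MS on a BPX5 column after methoxymation and trimethylsilylation, expressed relative to a 15-minute collection-to-centrifugation interval. Plasma was prepared from EDTA blood held at 4° C and spun at 4° C, 3000 rpm for 15 minutes, then frozen.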

Data set [5] in a line: LC/MS of serum sample: time from centrifugation to isolation (Table K). Set-up: key to Rate of increase or decrease: detection intensity relative to the 30-minute value set as 1. The settings on record: for Rate of increase or decrease: after 6 hours from centrifugation to isolation, detection intensity relative to 1 at 30 minutes; for Increase or decrease / Time when compound is affected: serum sample, LC/MS; for Increase or decrease: detection intensity vs 30 minutes from centrifugation to isolation; for Time when compound is affected: time from centrifugation to isolation, detection intensity changed by 30% or more vs 30 minutes. A digest of the protocol: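 Serum left at room temperature 30 min, 1 h or 6 h between centrifugation (3500 rpm, 5 min, room temperature) and isolation, then frozen and analysed by LC/MS (Discovery HS F5-3 column, 40° C., 0.1% formic acid water/acetonitrile, electrospray, MRM). Values are detection intensity relative to the 30-min condition set to 1.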

The mark [6] stands for this setting: freezing and thawing 4 times vs 2 times.
The mark [7] stands for this setting: freezing and thawing 10 times vs 2 times.
Setting [8] is: freezing and thawing 6 times vs 2 times.

With `NC(=O)NC1NC(=O)NC1=O` (stereo not drawn) [Allantoin], the “Rate of increase or decrease” value is 0.55 in data set [1] (freezing and thawing 4 times); 2.94 in data set [2] (detection intensity relative to 1 at 2 times, serum, GC/MS, freezing and thawing 10 times); 1.42 in data set [3] (freezing and thawing 10 times); 0.18 in data set [4] (after 4 hours); 10.46 in data set [5]. The Increase or decrease entry in data set [1] (setting [6]) is given as “Decrease”; in data set [2] (detection intensity, serum, GC/MS, freezing and thawing 10 times vs 2 times), “Increase”; in data set [3] (setting [7]) it was “Increase”; in data set [4], “Decrease”; in data set [5] it was “Increase”. Further, the “Time when compound is affected” value in data set [5] is recorded as “After 6 hours”.
Turning to `O=c1[nH]cnc2nc[nH]c12` [Hypoxanthine], the “Rate of increase or decrease” value in data set [1] (freezing and thawing 6 times) was 2.04; in data set [2] (10 times of freezing and thawing, relative to 1 at 2 times, different from individual to individual, first value (increase)), 1.47; in data set [2] (10 times of freezing and thawing, relative to 1 at 2 times, different from individual to individual, second value (decrease)), 0.66; in data set [5], 2.78. For the same compound, the Increase or decrease result is recorded as “Increase” in data set [1] (setting [8]); “Different from individual” in data set [2] (serum sample, GC/MS, detection intensity vs 2 times of freezing and thawing); “Increase” in data set [5]. Also, the “Number of times when compound is affected” value in data set [2] (serum sample, GC/MS, detection intensity changed by 30% or more vs 2 times of freezing and thawing) was determined as 10 times. Besides, the “Time when compound is affected” value in data set [5] is reported as “After 6 hours”.
Regarding `CC(C)(CO)[C@@H](O)C(=O)NCCC(=O)O` [Pantothenic acid], the “Rate of increase or decrease” value in data set [1] (freezing and thawing 10 times) was found to be 1.43; in data set [2] (detection intensity relative to 1 at 2 times, serum, GC/MS, freezing and thawing 4 times), 1.39; in data set [3] (freezing and thawing 4 times), 3.07; in data set [4] (after 4 hours), 3.15. The Increase or decrease result in data set [1] (setting [7]) is given as “Increase”; in data set [2] (detection intensity, serum, GC/MS, freezing and thawing 4 times vs 2 times), “Increase”; in data set [3] (setting [6]), “Increase”; in data set [4] it was “Increase”.
On to `O=c1[nH]c(=O)c2[nH]cnc2[nH]1` [Xanthine], for which the “Rate of increase or decrease” value was 1.77 in data set [1] (freezing and thawing 4 times); 2.50 in data set [5]. Further, the Increase or decrease result in data set [1] (setting [6]) was “Increase”; in data set [3] (setting [8]) it was “Different from individual”; in data set [4], “Different from individual”; in data set [5] it was “Increase”. Moreover, the “Rate of increase or decrease (second value, decrease)” value was 0.51 in data set [3] (different from individual to individual, individuals with decrease, relative to 1 at 2 times, freezing and thawing 6 times); 0.49 in data set [4] (different from individual to individual, individuals with decrease, relative to 1 at 15 minutes, collection to centrifugation, after 4 hours). Further, the “Rate of increase or decrease (first value, increase)” value was 2.21 in data set [3] (different from individual to individual, individuals with increase, relative to 1 at 2 times, freezing and thawing 6 times); 1.83 in data set [4] (different from individual to individual, individuals with increase, relative to 1 at 15 minutes, collection to centrifugation, after 4 hours). In addition, the “Time when compound is affected” value in data set [5] is listed as “After 6 hours”.
